Assay results reported in ChEMBL document CHEMBL4321839, “Structure-activity relationships (SAR) of triazine derivatives: Promising antimicrobial agents” (Eur J Med Chem, 2020).
Converted amounts (≈) assume the structure as drawn. Blank lines part the entries; values can stand above or below the compound they belong to.

Experiments:
[1] = system: Staphylococcus aureus; assay: Antimicrobial activity against methicillin-resistant Staphylococcus aureus clinical isolate MRSA1 assessed as reduction in microbial growth by two-fold serial dilution method; type: functional
[2] = Cytotoxicity against African green monkey Vero cells incubated for 72 hrs by MTT assay; type: cell-based; details: chlorocebus sabaeus
[3] = system: Staphylococcus aureus; assay: Antimicrobial activity against Staphylococcus aureus […] assessed as reduction in microbial growth after 24 to 48 hrs by microdilution susceptibility test; type: functional
[4] = system: Escherichia coli; assay: Antimicrobial activity against Escherichia coli ATCC 25922 assessed as reduction in microbial growth after 24 to 48 hrs by microdilution susceptibility test; type: functional
[5] = system: Staphylococcus aureus; assay: Antimicrobial activity methicillin-resistant against Staphylococcus aureus; type: functional
[6] = system: Escherichia coli; assay: Antimicrobial activity multi drug-resistant against Escherichia coli; type: functional
[7] = system: Escherichia coli; assay: Antimicrobial activity against multi drug-resistant Escherichia coli assessed as reduction in microbial growth after 24 to 48 hrs by microdilution susceptibility test; type: functional
[8] = system: Staphylococcus aureus; assay: Antimicrobial activity against methicillin-resistant Staphylococcus aureus assessed as reduction in microbial growth after 24 to 48 hrs by microdilution susceptibility test; type: functional
[9] = system: Proteus vulgaris; assay: Antimicrobial activity against Proteus vulgaris NCIM-2027 assessed as reduction in microbial growth after 24 hrs by CLSI based broth dilution method; type: functional; details: NCIM-2027, 24 h
[10] = system: Pseudomonas aeruginosa; assay: Antimicrobial activity against Pseudomonas aeruginosa NCIM-2036 after 24 hrs by CLSI based broth dilution method; type: functional; details: NCIM-2036, 24 h
[11] = system: Escherichia coli; assay: Antimicrobial activity against Escherichia coli NCIM-2065 assessed as reduction in microbial growth after 24 hrs by CLSI based broth dilution method; type: functional; details: NCIM-2065, 24 h
[12] = system: Aspergillus niger; assay: Antifungal activity against Aspergillus niger NCIM-620 at 72 hrs by CLSI based alamar blue assay; type: functional; details: NCIM-620, 72 h
[13] = system: Cryptococcus neoformans; assay: Antifungal activity against Cryptococcus neoformans NCIM-3542 at 72 hrs by CLSI based alamar blue assay; type: functional; details: NCIM-3542, 72 h
[14] = system: Candida albicans; assay: Antifungal activity against Candida albicans NCIM-3102 at 18 to 24 hrs by CLSI based alamar blue assay; type: functional
[15] = system: Nakaseomyces glabratus; assay: Antifungal activity against Candida glabrata NCIM-3266 at 18 to 24 hrs by CLSI based alamar blue assay; type: functional
[16] = system: Bacillus subtilis; assay: Antimicrobial activity against Bacillus subtilis NCIM-2063 assessed as zone of inhibition at 5 ug after 24 hrs by disk diffusion method; type: functional; details: NCIM-2063, 24 h, read-out: IZ
[17] = system: Bacillus cereus; assay: Antimicrobial activity against Bacillus cereus NCIM-2156 assessed as zone of inhibition at 5 ug after 24 hrs by disk diffusion method; type: functional; details: NCIM-2156, 24 h, read-out: IZ
[18] = system: Pseudomonas aeruginosa; assay: Antimicrobial activity against Pseudomonas aeruginosa NCIM-2036 assessed as zone of inhibition at 5 ug after 24 hrs by disk diffusion method; type: functional; details: NCIM-2036, 24 h, read-out: IZ
[19] = system: Staphylococcus aureus; assay: Antimicrobial activity against Staphylococcus aureus NCIM-2079 assessed as zone of inhibition at 5 ug after 24 hrs by disk diffusion method; type: functional; details: NCIM-2079, 24 h, read-out: IZ
[20] = system: Proteus mirabilis; assay: Antimicrobial activity against Proteus mirabilis assessed as zone of inhibition after 18 hrs by disk diffusion method; type: functional
[21] = system: Enterococcus faecium; assay: Antimicrobial activity against vancomycin-resistant Enterococcus faecium ATCC 51559 assessed as reduction in microbial growth incubated for 18 to 24 hrs by two-fold serial dilution method; type: functional
[22] = system: Escherichia coli; assay: Antimicrobial activity against Escherichia coli MTCC 443 assessed as reduction in microbial growth after 24 to 48 hrs by broth dilution method; type: functional
[23] = system: Pseudomonas aeruginosa; assay: Antimicrobial activity against Pseudomonas aeruginosa MTCC 1688 assessed as reduction in microbial growth after 24 to 48 hrs by broth dilution method; type: functional

SMILES: O=C(N/N=C/c1ccc2c(c1)OCO2)c1ccc(Nc2nc(N3CCCCC3)nc(N3CCCCC3)n2)cc1
MIC [1]: 25 µg/mL
CC50 at 72 h [2]: 250 µg/mL (≈ 473 µM)

MIC [3]: 12.5 to 25 µg/mL
MIC [4]: 12.5 to 25 µg/mL
SMILES: O=C(CNc1nc(NCC(=O)N/N=C/c2ccc(Cl)cc2)nc(Nc2ccc(Nc3nc(NCC(=O)N/N=C/c4ccc(Cl)cc4)nc(NCC(=O)N/N=C/c4ccc(Cl)cc4)n3)cc2)n1)N/N=C/c1ccc(Cl)cc1

SMILES: Nc1ccc(C2=NN=C3C(F)CC4=C(C(C5CC5)C=C(C(=O)O)C4=O)N3C2)cc1 (stereo unspecified)
MIC [5]: 0.25 µg/mL (≈ 0.634 µM)

SMILES: COc1ccccc1C1=NN=C2C(F)CC3=C(C(C4CC4)C=C(C(=O)O)C3=O)N2C1 (stereo unspecified)
MIC [6]: 0.5 µg/mL (≈ 1.22 µM)
MIC [5]: 1 µg/mL (≈ 2.44 µM)

SMILES: O=C(O)C1=CC(C2CC2)C2=C(CC(F)C3=NN=C(c4ccccc4F)CN32)C1=O (stereo unspecified)
MIC [6]: 0.25 µg/mL (≈ 0.629 µM)
MIC [5]: 0.25 to 8 µg/mL (≈ 0.629 to 20.1 µM)

SMILES: O=C(O)c1ccc(Nc2nc(Cl)nc(NCc3ccccc3)n2)cc1
MIC [3]: 12.5 µg/mL
MIC [4]: 50 µg/mL
CC50 at 72 h [2]: 225 µg/mL (≈ 632 µM)
MIC [7]: 100 µg/mL
MIC [8]: 25 µg/mL

MIC [9]: 3.91 to 7.81 µg/mL
MIC [10]: 3.12 to 6.25 µg/mL (≈ 6.89 to 13.8 µM)
MIC [11]: 3.91 to 7.81 µg/mL
SMILES: C=CC1=C(C(=O)O)N2C(=O)[C@@H](NC(=O)/C(=N\OCC(=O)O)c3csc(N)n3)[C@H]2SC1 [CEFIXIME]

MIC [12]: 0.63 to 5 µg/mL (≈ 1.37 to 10.9 µM)
MIC [13]: 0.63 to 5 µg/mL (≈ 1.37 to 10.9 µM)
MIC [14]: 0.63 to 5 µg/mL (≈ 1.37 to 10.9 µM)
MIC [15]: 0.63 to 5 µg/mL (≈ 1.37 to 10.9 µM)
SMILES: Clc1ccc(-c2csc(Nc3nc(N4CCOCC4)nc(N4CCOCC4)n3)n2)cc1

MIC [14]: 0.32 µg/mL (≈ 0.504 µM)
MIC [15]: 0.32 µg/mL (≈ 0.504 µM)
SMILES: O=[N+]([O-])c1ccc(-c2csc(Nc3nc(N(c4ccccc4)c4ccccc4)nc(N(c4ccccc4)c4ccccc4)n3)n2)cc1

SMILES: S=C(Nc1ccnc2cc(Cl)ccc12)N1CCN(c2nc(Nc3ccc(Cl)cc3)nc(Nc3ccc(Cl)cc3)n2)CC1
zone of inhibition at 5 µg/disc [16]: 16 to 17 mm
zone of inhibition at 5 µg/disc [17]: 9 to 17 mm
zone of inhibition at 5 µg/disc [18]: 9 to 17 mm
zone of inhibition at 5 µg/disc [19]: 16 to 17 mm

SMILES: O=C(O)c1cn(C2CC2)c2cc(N3CCNCC3)c(F)cc2c1=O [CIPROFLOXACIN]
MIC [5]: 4 µg/mL (≈ 12.1 µM)
inhibition zone (IZ) [20]: 22 mm

SMILES: O=C(O)C1=CC(C2CC2)C2=C(CC(F)C3=NN=C(c4cccc(Cl)c4)CN32)C1=O (stereo unspecified)
MIC [6]: 8 µg/mL (≈ 19.3 µM)
MIC [5]: 8 µg/mL (≈ 19.3 µM)

SMILES: Cc1ccc(Nc2nc(Nc3ccc(C)cc3)nc(N3CCN(C(=S)Nc4ccnc5cc(Cl)ccc45)CC3)n2)cc1
zone of inhibition at 5 µg/disc [16]: 16 to 17 mm
zone of inhibition at 5 µg/disc [17]: 9 to 17 mm
zone of inhibition at 5 µg/disc [18]: 9 to 17 mm
zone of inhibition at 5 µg/disc [19]: 16 to 17 mm

SMILES: CC[C@H](C)[C@H](NC(=O)CN)C(=O)NCC(=O)N[C@@H](C)C(=O)N[C@H](C(=O)N[C@@H](CC(C)C)C(=O)N[C@@H](CCCCN)C(=O)N[C@H](C(=O)N[C@@H](CC(C)C)C(=O)N[C@H](C(=O)N[C@H](C(=O)NCC(=O)N[C@@H](CC(C)C)C(=O)N1CCC[C@H]1C(=O)N[C@@H](C)C(=O)N[C@@H](CC(C)C)C(=O)N[C@H](C(=O)N[C@@H](CO)C(=O)N[C@@H](Cc1c[nH]c2ccccc12)C(=O)N[C@H](C(=O)N[C@@H](CCCCN)C(=O)N[C@@H](CCCNC(=N)N)C(=O)N[C@@H](CCCCN)C(=O)N[C@@H](CCCNC(=N)N)C(=O)N[C@@H](CCC(N)=O)C(=O)N[C@@H](CCC(N)=O)C(N)=O)[C@@H](C)CC)[C@@H](C)CC)[C@@H](C)O)[C@@H](C)O)C(C)C)C(C)C [MELITTIN]
MIC [21]: 2 µM

MIC [10]: 6.25 µg/mL (≈ 8.63 µM)
SMILES: CC1=NN(c2ccccc2)C(C)C1Nc1nnc(Sc2nc(Nc3ccc(Br)cc3)nc(Nc3ccc(Br)cc3)n2)s1 (stereo unspecified)

MIC [22]: 25 µg/mL
MIC [23]: 50 µg/mL
SMILES: O=[N+]([O-])c1ccc(Nc2nc(Nc3ccc(S(=O)(=O)Nc4ncccn4)cc3)nc(N3CCCCC3)n2)cc1

MIC [14]: 5 µg/mL (≈ 12.4 µM)
SMILES: CC(C)Nc1nc(Nc2nc(-c3ccc(Cl)cc3)cs2)nc(NC(C)C)n1

MIC [10]: 6.25 µg/mL (≈ 9.83 µM)
SMILES: CC1=NN(c2ccccc2)C(C)C1Nc1nnc(Sc2nc(Nc3ccc(Cl)cc3)nc(Nc3ccc(Cl)cc3)n2)s1 (stereo unspecified)

MIC [14]: 0.63 µg/mL (≈ 1.01 µM)
SMILES: Clc1ccc(-c2csc(Nc3nc(N(c4ccccc4)c4ccccc4)nc(N(c4ccccc4)c4ccccc4)n3)n2)cc1

MIC [3]: 12.5 to 25 µg/mL
MIC [4]: 12.5 to 25 µg/mL
SMILES: O=C(CNc1nc(NCC(=O)N/N=C/c2ccc(Cl)cc2)nc(Nc2ccc(-c3ccc(Nc4nc(NCC(=O)N/N=C/c5ccc(Cl)cc5)nc(NCC(=O)N/N=C/c5ccc(Cl)cc5)n4)cc3)cc2)n1)N/N=C/c1ccc(Cl)cc1

SMILES: COc1ccc(C2=NN=C3C(F)CC4=C(C(C5CC5)C=C(C(=O)O)C4=O)N3C2)cc1OC (stereo unspecified)
MIC [6]: 0.5 µg/mL (≈ 1.14 µM)
MIC [5]: 1 µg/mL (≈ 2.28 µM)
